According to patent publication US20060128792A1, “Deguelin as a chemopreventive agent for lung cancer” (priority 2002, published 2006):
Several values for one entry are separate records, joined by “and”; a condition that tells them apart may be missing. Equal values may be shown once.

Columns and labels:
Format in all cases: cell-based
[1] = test system: Cal6; test: MTT assay, growth inhibition by deguelin or deguelin derivatives; settings: 3 days
[2] = test system: pAkt (Ser473) and pGSK-3β (Ser9) in squamous HBE cells; test: Western blot of pAkt (Ser473) and pGSK-3β (Ser9); settings: time-dependent
Description: Immunoblotting. Whole cell lysates were prepared in lysis buffer (50 mM N-[2-[…]]-piperazine-N′-[2-ethanesulfonic acid] [HEPES; pH 7.5], 150 mM NaCl, 1.5 mM MgCl2, ImM EDTA, 0.2 mM EGTA, 1% NP40, 10% glycerol, 1 mM dithiothreitol (DTT), 1 mM phenylmethylsulfonyl fluoride, 20 mM sodium fluoride, 5 mM sodium orthovanadate, 10 μg/ml aprotinin, 10 μg/ml leupeptin, 2 μg/ml pepstatin, and 1 mM benzamidine) as described previously (Lee et al., 2002). Equivalent protein concentrations were resolved in sodium dodecyl sulfate-polyacrylamide gels and transferred to a nitrocellulose membrane. After the blocking of transblotted membrane in Tris-buffered saline (TBS) containing 0.05% Tween 20 (TBST) and 5% low fat milk, themembrane was incubated with primary antibody at the appropriate dilution in TBS-5% low-fat milk at 4° C. for 16 h and washed with TBST. The immunoblots were visualized using the ECL kit (Amersham, Inc., Arlington Heights, III) according to the manufacturer's directions. Rabbit polyclonal antibodies against human pAkt (Ser473), Akt, and pGSK-3β (Ser9), and mouse monoclonal antibody against human anti-pMAPK (Thr202/Tyr204) were purchased from Cell Signalinng Technology (Beverly, Mass.). […]
Effects of Deguelin on Squamous Differentiated HBE Cells. […] It was then determined whether deguelin inhibits the activation of PI3K/Akt pathway in squamous HBE cells. […]

[3] = test system: COX-2; test: COX-1 and COX-2 expression by northern and western blotting; settings: premalignant cells (1799, squamous HBE); 1 nM, 10 nM or 100 nM
Description: COX-2 on the other hand, is found to be induced and expressed in neoplastic growth. […] Thus, it was determined whether deguelin regulates the expression of COX-2 in lung cancer cells. Normal, premalignant, and malignant lung cancer cells, NHBE, 1799, 1198, and 1170, were treated with 1 nM, 10 nM, or 100 nM deguelin for 1 day and COX-1 and COX-2 expression were analyzed by northern blotting.
In this study, the protein and mRNA expression of COX-1 and COX-2 were tested in 1799 and squamous (Sq) HBE cells. These cells were treated with 1 nM, 10 nM, or 100 nM deguelin and the COX-1 and COX-2 RNA and analyzed by northern blotting and western blotting. Equal amount of mRNA in each lane was confirmed by northern blot analysis using GAPDH (data not shown).

[4] = test system: H1299 and squamous HBE cells; test: Apoptosis by flow cytometry (FACS); settings: 10^−7 M deguelin, by day 2 or day 3
Description: Apoptosis assay. Normal, premalignant, and malignant HBE cells were exposed to v various doses of deguelin for 3 days. […] Both adherent and floating cells were combined for the assessment of apoptosis using the APO-BRDU staining kit (Phoenix Flow Systems, San Diego, Calif.). Briefly, floating and attached cells dispersed with trypsin-EDTA were pelleted, washed, and fixed by 1% paraformaldehyde followed by 70% ethanol. The fixed cells were washed and incubated with DNA-labeling solution containing terminal deoxynucleotidyl transferase (TdT) reaction buffer, TdT enzyme, and bromodeoxyuridine triphosphate (Br-dUTP). Cells were rinsed, resuspended with fluorescein-PRB-I antibody solution, and analyzed by flow cytometry in the presence of PI/RNase solution. […] A dual display of DNA area (linear red fluorescence) and Br-dUTP incorporation (FITC-PRB-1) was used to determine the percentage of apoptotic cells.
The apoptotic effect of deguelin was further assessed in HBE cells. […] Apoptosis was analyzed by flow cytometry as described above. […] To confirm the apoptotic activity in these cells, bax and bcl-2 expression were analyzed by western blotting. […] Thus, it was determined that deguelin increases bax expression thereby inducing the apoptotic activity in lung cancer cells.

[5] = test system: breast, prostate, head & neck and ovarian cancer cells; test: MTT assay, growth inhibition in other cancer cells; settings: 10^−9 M to 10^−6 M, 3 or 5 days; more effective at 10^−7 M to 10^−6 M
Description: It was next determined whether deguelin can inhibit cell growth in cancer cells other than lung cancer cells. Cancer cells, such as breast, prostate, head & neck and ovarian cells were treated with 10^−6 M, 10^−7 M, 10^−8 M, or 10^−9 M deguelin for 3 or 5 days, and cell growth inhibition analyzed by MTT assay.

COc1cc2c(cc1OC)[C@@H]1C(=O)c3ccc4c(c3O[C@@H]1CO2)C=CC(C)(C)O4 [Deguelin]
Avg. % con ([1]; deguelin 10^−6M): 0.24 % con
MTT value, mean of replicates (unheaded line) ([1]; deguelin 10^−6M): 0.094
MTT value, replicate (unheaded line) ([1]; deguelin 10^−6M): 0.098 and 0.106 and 0.078
Avg. % con ([1]; deguelin 10^−8M): 0.88 % con
MTT value, mean of replicates (unheaded line) ([1]; deguelin 10^−8M): 0.345
MTT value, replicate (unheaded line) ([1]; deguelin 10^−8M): 0.356 and 0.338 and 0.341
Avg. % con ([1]; deguelin 10^−10M): 0.93 % con
MTT value, mean of replicates (unheaded line) ([1]; deguelin 10^−10M): 0.364
MTT value, replicate (unheaded line) ([1]; deguelin 10^−10M): 0.332 and 0.386 and 0.374
Avg. % con ([1]; deguelin 10^−12M): 0.92 % con
MTT value, mean of replicates (unheaded line) ([1]; deguelin 10^−12M): 0.360
MTT value, replicate (unheaded line) ([1]; deguelin 10^−12M): 0.357 and 0.358 and 0.366
elevated levels of pAkt (Ser473) and pGSK-3β (Ser9) [2]: down-regulated
induced COX-2 expression [3]: downregulated
apoptosis (flow cytometry) [4]: ≥ 60%
cell proliferation in breast, prostate, head & neck and ovarian cancer cells [5]: inhibit cell proliferation in these cells in a dose dependent manner
